Some targets named below: STK24 (Homo sapiens, UniProt Q9Y6E0); MYLK2 (Homo sapiens, UniProt Q9H1R3); MAP3K6 (Homo sapiens, UniProt O95382); MARK3 (Homo sapiens, UniProt P27448); TLK1 (Homo sapiens, UniProt Q9UKI8); AURKC (Homo sapiens, UniProt Q9UQB9); IGF1R (Homo sapiens, UniProt P08069); TNK1 (Homo sapiens, UniProt Q13470); LIMK2 (Homo sapiens, UniProt P53671); PIK3C2B (Homo sapiens, UniProt O00750); PIK3C3 (Homo sapiens, UniProt Q8NEB9); EPHB6 (Homo sapiens, UniProt O15197); MAPKAPK2 (Homo sapiens, UniProt P49137); MAP3K11 (Homo sapiens, UniProt Q16584); TNIK (Homo sapiens, UniProt Q9UKE5); CIT (Homo sapiens, UniProt O14578).

Assay in all cases: biochemical
Holding throughout (set-up): KINOMEscan competition binding, DNA-tagged kinase against immobilised ligand, qPCR read-out
Common to all, as to settings: read-out: Percent Control
Background: In qPCR the cycle at which signal appears reflects the starting amount.

A further experiment has as its target T1, CABC1 (Homo sapiens, UniProt Q8NI60).
T1 construct: gene COQ8A

Experiment [1] has as its target T2, RPS6KA5(Kin.Dom.2-C-terminal) (Homo sapiens, UniProt O75582).
T2 construct: Kin.Dom.2 C-terminal

Another experiment concerns the target T3, ZAK (Homo sapiens, UniProt Q9NYL2).
T3 construct: gene MAP3K20

Another experiment concerns the target T4, ADRBK2 (Homo sapiens, UniProt P35626).
T4 construct: gene GRK3

AURKC, sequence (Q9UQB9 whole entry): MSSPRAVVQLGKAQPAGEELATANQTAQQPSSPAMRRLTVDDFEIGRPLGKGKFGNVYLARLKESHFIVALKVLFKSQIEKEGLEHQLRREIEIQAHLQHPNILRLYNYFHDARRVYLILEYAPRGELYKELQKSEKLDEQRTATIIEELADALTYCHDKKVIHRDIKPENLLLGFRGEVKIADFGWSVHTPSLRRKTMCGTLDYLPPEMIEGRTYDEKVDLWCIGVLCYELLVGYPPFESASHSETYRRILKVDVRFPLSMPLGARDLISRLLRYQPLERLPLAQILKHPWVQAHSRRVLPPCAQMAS
EPHB6, sequence (O15197 whole entry): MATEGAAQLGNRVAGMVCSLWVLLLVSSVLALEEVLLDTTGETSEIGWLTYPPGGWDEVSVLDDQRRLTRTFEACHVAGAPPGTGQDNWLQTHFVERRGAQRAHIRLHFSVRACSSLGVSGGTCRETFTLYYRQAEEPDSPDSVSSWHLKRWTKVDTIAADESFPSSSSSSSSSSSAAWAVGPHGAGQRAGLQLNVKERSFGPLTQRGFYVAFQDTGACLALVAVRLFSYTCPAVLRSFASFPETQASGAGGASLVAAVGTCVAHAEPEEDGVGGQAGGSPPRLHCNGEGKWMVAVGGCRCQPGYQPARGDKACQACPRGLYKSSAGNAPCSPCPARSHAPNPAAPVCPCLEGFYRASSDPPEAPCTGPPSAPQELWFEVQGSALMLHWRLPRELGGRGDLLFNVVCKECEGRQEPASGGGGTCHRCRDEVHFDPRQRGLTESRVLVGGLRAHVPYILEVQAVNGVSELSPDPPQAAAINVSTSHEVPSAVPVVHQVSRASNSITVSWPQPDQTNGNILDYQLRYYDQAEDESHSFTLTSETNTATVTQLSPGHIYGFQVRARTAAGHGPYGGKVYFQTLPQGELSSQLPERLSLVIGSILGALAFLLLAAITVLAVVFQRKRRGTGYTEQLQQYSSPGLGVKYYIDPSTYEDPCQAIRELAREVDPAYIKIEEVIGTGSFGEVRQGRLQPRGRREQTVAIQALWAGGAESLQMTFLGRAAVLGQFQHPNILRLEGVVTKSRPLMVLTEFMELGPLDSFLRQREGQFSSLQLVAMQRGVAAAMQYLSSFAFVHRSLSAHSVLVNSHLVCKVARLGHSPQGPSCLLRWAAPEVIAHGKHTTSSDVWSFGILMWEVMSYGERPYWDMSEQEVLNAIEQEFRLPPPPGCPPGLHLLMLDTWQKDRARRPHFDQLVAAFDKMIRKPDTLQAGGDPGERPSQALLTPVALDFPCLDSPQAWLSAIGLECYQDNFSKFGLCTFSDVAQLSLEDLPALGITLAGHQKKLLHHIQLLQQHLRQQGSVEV
LIMK2, sequence (P53671 whole entry): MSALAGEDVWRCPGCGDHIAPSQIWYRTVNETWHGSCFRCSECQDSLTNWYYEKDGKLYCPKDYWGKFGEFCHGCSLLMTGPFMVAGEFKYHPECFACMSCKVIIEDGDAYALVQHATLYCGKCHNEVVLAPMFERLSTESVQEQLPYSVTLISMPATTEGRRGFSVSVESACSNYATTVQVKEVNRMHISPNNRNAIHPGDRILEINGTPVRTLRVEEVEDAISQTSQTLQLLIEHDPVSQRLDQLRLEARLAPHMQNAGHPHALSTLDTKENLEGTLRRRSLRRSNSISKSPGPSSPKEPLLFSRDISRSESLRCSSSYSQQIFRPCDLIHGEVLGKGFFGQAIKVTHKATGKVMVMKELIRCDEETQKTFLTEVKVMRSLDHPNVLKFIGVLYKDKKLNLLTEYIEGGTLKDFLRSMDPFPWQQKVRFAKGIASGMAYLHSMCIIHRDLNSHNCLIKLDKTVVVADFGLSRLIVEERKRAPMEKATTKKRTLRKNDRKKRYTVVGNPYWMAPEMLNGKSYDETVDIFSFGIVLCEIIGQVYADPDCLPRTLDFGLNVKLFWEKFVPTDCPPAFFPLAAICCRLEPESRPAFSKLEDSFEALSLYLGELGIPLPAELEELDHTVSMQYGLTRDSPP
CIT, sequence (O14578 whole entry): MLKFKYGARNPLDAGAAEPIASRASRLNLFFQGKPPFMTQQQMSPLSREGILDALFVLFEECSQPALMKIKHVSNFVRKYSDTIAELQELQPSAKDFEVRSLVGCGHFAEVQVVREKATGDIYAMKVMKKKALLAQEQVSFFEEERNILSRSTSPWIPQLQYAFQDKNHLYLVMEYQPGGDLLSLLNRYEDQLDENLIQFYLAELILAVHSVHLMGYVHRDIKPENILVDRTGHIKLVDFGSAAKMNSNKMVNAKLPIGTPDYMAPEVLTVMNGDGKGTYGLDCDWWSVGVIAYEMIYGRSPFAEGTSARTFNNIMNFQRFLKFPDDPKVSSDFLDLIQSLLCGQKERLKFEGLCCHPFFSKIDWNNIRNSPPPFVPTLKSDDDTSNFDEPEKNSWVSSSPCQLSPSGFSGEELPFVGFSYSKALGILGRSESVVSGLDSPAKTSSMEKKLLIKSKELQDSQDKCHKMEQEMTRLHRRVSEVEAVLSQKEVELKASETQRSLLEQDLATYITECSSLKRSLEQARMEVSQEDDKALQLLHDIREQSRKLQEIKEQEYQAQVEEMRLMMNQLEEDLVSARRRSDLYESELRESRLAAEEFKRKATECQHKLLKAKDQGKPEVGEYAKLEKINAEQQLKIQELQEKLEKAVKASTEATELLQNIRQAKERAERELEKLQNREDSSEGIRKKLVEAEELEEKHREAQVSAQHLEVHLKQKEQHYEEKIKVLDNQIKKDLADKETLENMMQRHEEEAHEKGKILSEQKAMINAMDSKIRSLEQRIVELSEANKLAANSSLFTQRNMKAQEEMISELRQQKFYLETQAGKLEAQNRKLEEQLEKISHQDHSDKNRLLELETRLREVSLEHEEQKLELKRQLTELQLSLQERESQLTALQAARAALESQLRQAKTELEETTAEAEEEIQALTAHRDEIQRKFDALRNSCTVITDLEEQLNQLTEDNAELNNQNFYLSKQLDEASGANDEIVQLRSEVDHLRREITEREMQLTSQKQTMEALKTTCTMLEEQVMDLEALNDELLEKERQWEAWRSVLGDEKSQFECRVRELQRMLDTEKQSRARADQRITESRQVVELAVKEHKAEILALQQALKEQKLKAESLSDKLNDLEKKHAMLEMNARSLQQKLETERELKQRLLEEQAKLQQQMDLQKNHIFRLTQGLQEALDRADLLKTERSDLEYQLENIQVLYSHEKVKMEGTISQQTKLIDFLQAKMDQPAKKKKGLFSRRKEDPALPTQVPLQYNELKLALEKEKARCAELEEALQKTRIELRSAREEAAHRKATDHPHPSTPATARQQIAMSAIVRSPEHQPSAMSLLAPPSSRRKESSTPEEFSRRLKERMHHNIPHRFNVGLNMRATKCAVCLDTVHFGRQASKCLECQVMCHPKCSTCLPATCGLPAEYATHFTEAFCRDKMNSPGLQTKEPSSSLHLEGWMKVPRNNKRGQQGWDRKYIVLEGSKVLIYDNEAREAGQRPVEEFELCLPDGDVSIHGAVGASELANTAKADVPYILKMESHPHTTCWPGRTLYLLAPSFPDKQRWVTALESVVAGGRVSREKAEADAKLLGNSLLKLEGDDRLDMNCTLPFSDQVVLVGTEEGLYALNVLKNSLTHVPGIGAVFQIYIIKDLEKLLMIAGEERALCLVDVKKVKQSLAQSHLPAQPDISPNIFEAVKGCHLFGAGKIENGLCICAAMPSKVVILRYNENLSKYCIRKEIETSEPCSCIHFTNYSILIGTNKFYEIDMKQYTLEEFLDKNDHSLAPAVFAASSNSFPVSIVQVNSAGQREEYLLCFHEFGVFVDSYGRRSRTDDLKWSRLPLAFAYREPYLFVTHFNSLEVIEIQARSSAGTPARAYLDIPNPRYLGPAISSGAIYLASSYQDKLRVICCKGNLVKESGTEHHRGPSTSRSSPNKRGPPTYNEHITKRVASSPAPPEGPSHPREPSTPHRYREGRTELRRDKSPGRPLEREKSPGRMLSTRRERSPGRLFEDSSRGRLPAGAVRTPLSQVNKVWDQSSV
STK24, sequence (Q9Y6E0 whole entry): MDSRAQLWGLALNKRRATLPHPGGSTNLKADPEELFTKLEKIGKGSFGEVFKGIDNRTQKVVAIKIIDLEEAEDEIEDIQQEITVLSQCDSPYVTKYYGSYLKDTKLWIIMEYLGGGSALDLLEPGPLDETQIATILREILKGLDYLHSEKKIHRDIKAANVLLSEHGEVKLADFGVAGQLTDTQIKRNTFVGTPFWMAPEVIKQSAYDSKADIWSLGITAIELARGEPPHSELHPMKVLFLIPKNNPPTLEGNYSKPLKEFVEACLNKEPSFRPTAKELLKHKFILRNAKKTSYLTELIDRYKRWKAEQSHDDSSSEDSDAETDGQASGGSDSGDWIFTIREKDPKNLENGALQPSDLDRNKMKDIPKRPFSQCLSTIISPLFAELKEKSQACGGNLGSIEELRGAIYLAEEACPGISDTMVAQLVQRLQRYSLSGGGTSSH
MYLK2, sequence (Q9H1R3 whole entry): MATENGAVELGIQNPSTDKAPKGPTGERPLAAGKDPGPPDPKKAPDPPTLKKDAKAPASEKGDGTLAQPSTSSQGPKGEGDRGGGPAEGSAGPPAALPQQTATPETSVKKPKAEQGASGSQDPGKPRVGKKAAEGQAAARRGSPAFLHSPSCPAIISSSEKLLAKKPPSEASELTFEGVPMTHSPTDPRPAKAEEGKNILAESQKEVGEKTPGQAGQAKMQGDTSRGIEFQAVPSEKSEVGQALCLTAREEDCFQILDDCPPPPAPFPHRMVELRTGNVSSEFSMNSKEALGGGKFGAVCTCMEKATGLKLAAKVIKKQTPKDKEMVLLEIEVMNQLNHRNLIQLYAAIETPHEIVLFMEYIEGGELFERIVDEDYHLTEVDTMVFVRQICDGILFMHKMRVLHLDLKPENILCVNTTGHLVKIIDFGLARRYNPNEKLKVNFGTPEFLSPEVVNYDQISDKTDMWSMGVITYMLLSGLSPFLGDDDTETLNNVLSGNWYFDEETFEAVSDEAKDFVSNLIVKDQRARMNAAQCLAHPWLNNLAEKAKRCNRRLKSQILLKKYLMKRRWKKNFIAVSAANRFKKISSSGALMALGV

On to `Oc1ccc(C2=Cc3ccc(O)cc3OC2)cc1` [compound 1, idronoxil], for which the remaining binding at 10 µM is 79% at STK24; 80% on MYLK2; 88% on MAP3K6; 100% on MARK3; 71% at TLK1; 78% on CABC1. Besides, the remaining binding at 10 µM on AURKC turned out to be 74%; in experiment [1], 100%; on IGF1R, 84%; on TNK1, 76%; on LIMK2, 90%; at ZAK it was 54%. Further, the remaining binding at 10 µM on PIK3C2B came to 83%; at PIK3C3 it was 34%; on EPHB6 it was 53%; at MAPKAPK2, 65%; on MAP3K11 it was 63%; at ADRBK2, 85%. Besides, the remaining binding at 10 µM was determined as 56% on TNIK and 62% on CIT.

Values taken from PMC10507085, “Pharmacological inhibition of TBK1/IKKε blunts immunopathology in a murine model of SARS-CoV-2 infection” (Nature Communications, 2023).
